Among the data in patent US20150141411A1, “SUBSTITUTED 3,4-DIHYDRO-2H-PYRIDO[1,2-A]PYRAZINE-1,6-DIONE DERIVATIVES USEFUL FOR THE TREATMENT OF (INTER ALIA) ALZHEIMER'S DISEASE” (Janssen Pharmaceuticals, Inc., priority 2012, published 2015) are IC50 values, retold here.

Where only a bound is given, the exact number is not on record here.

The target in experiment [1] is T1, γ-secretase (Homo sapiens, UniProt P49768).
T1 construct: endogenous in cells; host or cells: SKNBE2 human neuroblastoma cells (carrying hAPP 695 wild type as substrate)
Put plainly: Screening for γ-secretase-modulating activity: Aβ42 in supernatant of SKNBE2 cells carrying hAPP 695 wild type (Alphalisa). The following applies: SKNBE2 human neuroblastoma cells carrying hAPP 695 wild type, overnight incubation, Aβ42 in cell supernatant. The experiment is classed as cell-based. How it is done: (§1) Screening was carried out using SKNBE2 human neuroblastoma cells carrying the hAPP 695—wild type, grown in Dulbecco's Modified Eagle's Medium/Nutrient mixture F-12 (DMEM/NUT-mix F-12) (HAM) provided by Invitrogen (cat no. 10371-029) containing 5% Serum/Fe supplemented with 1% non-essential amino acids, 1-glutamine 2 mM, Hepes 15 mM, penicillin 50 U/ml (units/ml) en streptomycin 50 μg/ml. Cells were grown to near confluency.
(§2) The screening was performed using a modification of the assay as described in Citron et al (1997) Nature Medicine 3: 67. Briefly, cells were plated in a 384-well plate at 10^4 cells/well in Ultraculture (Lonza, BE12-725F) supplemented with 1% glutamine (Invitrogen, 25030-024), 1% non-essential amino acid (NEAA), penicillin 50 U/ml en streptomycin 50 μg/ml in the presence of test compound at different test concentrations. The cell/compound mixture was incubated overnight at 37° C., 5% CO2. The next day the media were assayed by two sandwich immuno-assays, for Aβ42 and Aβ total.
(§3) Aβtotal and Aβ42 concentrations were quantified in the cell supernatant using the Aphalisa technology (Perkin Elmer). Alphalisa is a sandwich assay using biotinylated antibody attached to streptavidin coated donorbeads and antibody conjugated to acceptor beads. In the presence of antigen, the beads come into close proximity. The excitation of the donor beads provokes the release of singlet oxygen molecules that trigger a cascade of energy transfer in the acceptor beads, resulting in light emission. To quantify the amount of Aβ42 in the cell supernatant, monoclonal antibody specific to the C-terminus of Aβ42 (JRF/cAβ42/26) was coupled to the receptor beads and biotinylated antibody specific to the N-terminus of Aβ (JRF/AβN/25) was used to react with the donor beads. To quantify the amount of Aβtotal in the cell supernatant, monoclonal antibody specific to the N-terminus of Aβ (JRF/AβN/25) was coupled to the receptor beads and biotinylated antibody specific to the mid region of Aβ (biotinylated 4G8) was used to react with the donor beads.
(§4) To obtain the values reported in Table 3, the data are calculated as percentage of the maximum amount of amyloid Beta 42 measured in the absence of the test compound. The sigmoidal dose response curves were analyzed using non-linear regression analysis with percentage of the control plotted against the log concentration of the compound. A 4-parameter equation was used to determine the IC50.

The target in experiment [2] is T1, γ-secretase. As to the kind of experiment: Screening for γ-secretase-modulating activity: Aβtotal in supernatant of SKNBE2 cells carrying hAPP 695 wild type (Alphalisa). The following applies: SKNBE2 human neuroblastoma cells carrying hAPP 695 wild type, overnight incubation, Aβtotal in cell supernatant. It counts as cell-based. The procedure:
as §1, §2, §3, §4

In the case of `Cc1cn(-c2ccc3n(c2=O)CC(C)N(C(C)c2c[nH]c4cc(F)c(Cl)cc24)C3=O)cn1` (single isomer, unassigned) [compound 187], the IC50 in experiment [1] was 0.19 µM; in experiment [2], 6.92 µM.
In the same order, the values of `Cc1cn(-c2ccc3n(c2=O)C[C@@H](C)N(Cc2cccc(C(F)(F)F)c2C)C3=O)cn1` [compound 61] are 0.48 µM and above 10 µM.
In the same order, the values of `Cc1cn(-c2ccc3n(c2=O)C[C@@H](C)N(Cc2cn(C)c4c(C(F)(F)F)cc(F)cc24)C3=O)cn1` [compound 261] are 0.06 µM and above 10 µM.
In the same order, the values of `Cc1cn(-c2ccc3n(c2=O)CCN(CCCC(C)(C)C)C3=O)cn1` [compound 15] are 2.29 µM and above 10 µM.
Take `CCOCc1cc(CN2C(=O)c3ccc(-n4cnc(C)c4)c(=O)n3C[C@H]2C)cc(C(F)(F)F)c1` [compound 76]: the IC50 in experiment [1] was 0.19 µM; in experiment [2], above 10 µM.
For `Cc1cn(-c2ccc3n(c2=O)CCN(C(c2cc(C(F)(F)F)cc(C(F)(F)F)c2)C2CCOCC2)C3=O)cn1` (stereo not shown) [compound 51] the same measures were 0.5 µM and above 10 µM.
Turning to `Cc1cn(-c2ccc3n(c2=O)C[C@@H](C)N(Cc2ccc(C)c(OCC4CC4)c2)C3=O)cn1` [compound 162], the IC50 was 0.1 µM in experiment [1] and above 10 µM in experiment [2].
For `Cc1cn(-c2ccc3n(c2=O)C[C@@H](C)N(Cc2cccc(OC(F)(F)F)c2)C3=O)cn1` [compound 79] the same measures were 0.28 µM and above 10 µM.
For `Cc1cn(-c2ccc3n(c2=O)C[C@@H](C)N(CCc2cccc(Cl)c2Cl)C3=O)cn1` [compound 231] the same measures were 0.26 µM and above 10 µM.
For `Cc1cn(-c2cc(Cl)c3n(c2=O)C[C@@H](C)N(Cc2cc(C(F)(F)F)cc(C(F)(F)F)c2)C3=O)cn1` [compound 159] the same measures were 0.28 µM and above 10 µM.
As to `Cc1cn(-c2ccc3n(c2=O)C[C@@H](CO)N(Cc2cc(C(F)(F)F)cc(C(F)(F)F)c2)C3=O)cn1` [compound 45], the values for the IC50 in experiment [1] and in experiment [2] were 0.54 µM and above 10 µM, respectively.
For `COc1ccc2c(c1)c(CN1C(=O)c3ccc(-n4cnc(C)c4)c(=O)n3CC1C)cn2C(C)C` (stereo not shown) [compound 222] the same measures were 0.06 µM and above 10 µM.
For `CCn1cc(C(C)N2C(=O)c3ccc(-n4cnc(C)c4)c(=O)n3CC2C)c2cc(C(F)(F)F)ccc21` (single isomer, unassigned) [compound 216] the same measures were 0.12 µM and 6.46 µM.
In the same order, the values of `CCCc1nccn1-c1ccc2n(c1=O)CCN(CC1CC1)C2=O` [compound 17] are above 10 µM and above 10 µM.
On to `Cc1cn(-c2ccc3n(c2=O)C[C@@H](C)N(C(C)c2cc(Cl)cc(Cl)c2)C3=O)cn1` (single isomer, unassigned) [compound 210], for which the IC50 is 0.26 µM in experiment [1] and above 10 µM in experiment [2].
On to `Cc1cn(-c2ccc3n(c2=O)C(C)C(C)N(Cc2cc(C(F)(F)F)cc(C(F)(F)F)c2)C3=O)cn1` (single isomer, unassigned) [14a], for which the IC50 in experiment [1] was 1.78 µM; in experiment [2], above 10 µM.
For `Cc1cn(-c2ccc3n(c2=O)CC(C)N(Cc2cn(C)c4cc(Br)ccc24)C3=O)cn1` (stereo not shown) [compound 177] the same measures were 0.04 µM and above 10 µM.
In the same order, the values of `CCn1cc(C(C)N2C(=O)c3ccc(-n4cnc(C)c4)c(=O)n3C[C@H]2C)c2ccc(C(F)(F)F)cc21` (single isomer, unassigned) [compound 235] are 0.01 µM and 6 µM.
In the same order, the values of `Cc1cn(-c2ccc3n(c2=O)C[C@@H](C)N(Cc2cccc(-n4nc(C)cc4C)c2)C3=O)cn1` [compound 83] are 1.35 µM and above 10 µM.
As for `CCn1c(C)c(CN2C(=O)c3ccc(-n4cnc(C)c4)c(=O)n3C[C@H]2C)c2cc(C(F)(F)F)ccc21` [compound 182], the IC50 turned out to be 0.01 µM in experiment [1] and 2.51 µM in experiment [2].
With `Cc1cn(-c2ccc3n(c2=O)C[C@@H](C)N(Cc2cc(OC(C)C)c(Cl)cc2F)C3=O)cn1` [compound 163], the IC50 in experiment [1] is 0.17 µM; in experiment [2] it was above 10 µM.
In the same order, the values of `Cc1cn(-c2ccc3n(c2=O)CCN(Cc2cccc(-c4ccccc4)c2)C3=O)c(C)n1` [compound 87] are 7.76 µM and above 10 µM.
As for `Cc1cn(-c2ccc3n(c2=O)CC(C)N(C2Cc4ccccc4C2)C3=O)cn1` (single isomer, unassigned) [compound 206], the IC50 in experiment [1] and in experiment [2] was above 10 µM each time.
For the molecule `CCn1cc(CN2C(=O)c3ccc(-n4cnc(C)c4)c(=O)n3C[C@H]2C)c2cc(C(F)(F)F)ccc21` [compound 227], the values for the IC50 in experiment [1] and in experiment [2] were 0.01 µM and 2.19 µM, respectively.
In the same order, the values of `CCn1cc(CN2C(=O)c3ccc(-n4cnc(C)c4)c(=O)n3CC2C)c2ccc(C(F)(F)F)cc21` (stereo not shown) [compound 225] are 0.02 µM and above 10 µM.
For `Cc1cn(-c2ccc3n(c2=O)C[C@@H](C)N(C(C)c2cn(C4CC4)c4cc(F)c(Cl)cc24)C3=O)cn1` (single isomer, unassigned) [compound 248] the same measures were 0.008 µM and 1 µM.
Regarding `Cc1cn(-c2ccc3n(c2=O)C[C@@H](C)N(Cc2cc(N4CCC(C(F)(F)F)CC4)ccc2Cl)C3=O)cn1` [compound 81], the IC50 was 0.22 µM in experiment [1] and above 10 µM in experiment [2].
In the same order, the values of `Cc1cn(-c2ccc3n(c2=O)CCN(C(C)c2cc(Cl)cc(Cl)c2)C3=O)cn1` (single isomer, unassigned) [compound 209] are 0.38 µM and above 10 µM.
For `Cc1cn(-c2ccc3n(c2=O)CC(C)N(Cc2ccc(C)c(N4CCCCC4)c2)C3=O)cn1` (stereo not shown) [compound 4] the same measures were 0.08 µM and above 10 µM.
In the same order, the values of `Cc1cc(CN2CCn3c(ccc(-n4cnc(C)c4)c3=O)C2=O)cc(C(F)(F)F)c1` [compound 60] are 0.66 µM and above 10 µM.
For the molecule `Cc1cn(-c2ccc3n(c2=O)CC(C)N(C(C)c2c[nH]c4c(F)cc(Cl)cc24)C3=O)cn1` (single isomer, unassigned) [compound 218], the values for the IC50 in experiment [1] and in experiment [2] were 0.14 µM and 3.8 µM, respectively.
In the same order, the values of `Cc1cn(-c2ccc3n(c2=O)C[C@@H](C)N(Cc2cn(C)c4cc(F)ccc24)C3=O)cn1` [compound 242] are 0.26 µM and above 10 µM.
In the same order, the values of `Cc1cn(-c2ccc3n(c2=O)CC(C)N(C(C)c2cn(C)c4c(F)cc(Cl)cc24)C3=O)cn1` (single isomer, unassigned) [compound 224] are 0.01 µM and 1.86 µM.
Turning to `Cc1cn(-c2ccc3n(c2=O)CCN(C(C)c2cccc(Cl)c2Cl)C3=O)cn1` (racemic) [compound 10], the values for the IC50 in experiment [1] and in experiment [2] were 0.22 µM and above 10 µM, respectively.
For `CCn1cc(CN2C(=O)c3ccc(-n4cnc(C)c4)c(=O)n3C[C@H]2C)c2cc(C)ccc21` [compound 250] the same measures were 0.05 µM and above 10 µM.
For `Cc1cn(-c2ccc3n(c2=O)CCN(C(c2ccccc2)c2cc(C(F)(F)F)cc(C(F)(F)F)c2)C3=O)cn1` (racemic) [compound 52] the same measures were 0.98 µM and above 10 µM.
Consider `CCCc1nccn1-c1ccc2n(c1=O)CCN(CCC1CC1)C2=O` [compound 16], for which the IC50 in experiment [1] and in experiment [2] was above 10 µM throughout.
In the case of `Cc1cn(-c2ccc3n(c2=O)CCN(Cc2nccc(OCC(F)(F)F)c2C)C3=O)cn1` [compound 98], the results for the IC50 in experiment [1] and in experiment [2] were 2.88 µM and above 10 µM, respectively.
In the same order, the values of `Cc1cn(-c2ccc3n(c2=O)C[C@@H](C)N(CCc2cc(OC(C)C)cc(C(F)(F)F)c2)C3=O)cn1` [compound 156] are 0.03 µM and above 10 µM.
For `Cc1cn(-c2ccc3n(c2=O)C[C@@H](C)N(Cc2csc4ccc(Cl)cc24)C3=O)cn1` [compound 165], the IC50 in experiment [1] is 0.02 µM; in experiment [2], above 10 µM.
In the same order, the values of `Cc1cn(-c2ccc3n(c2=O)CC(C)N(C(C)c2cn(C)c4ccc(C(F)(F)F)cc24)C3=O)cn1` (single isomer, unassigned) [compound 215] are 0.01 µM and 1.44 µM.
